The compounds below were run on Leishmania major promastigotes (assay: Anti-leishmanial assay (promastigote culture, 72 h, microscopic counting)). Conditions: 72 h at 21-22° C., assays repeated thrice, read-out: Leishmanicidal Activity (IC50 in μM).
Format: cell-based
`C[C@]12[C@H](O)C[C@H]3[C@@H](CCC4=CC(=O)CC[C@@]43O)[C@@H]1CC[C@@H]2O` [Compound 2, 10β,12β,17β-Trihydroxy-19-nor-4-androsten-3-one] showed an IC50 greater than 100 µM.
`C[C@]12CC[C@H]3[C@@H](CCC4=CC(=O)CC[C@@]43O)[C@@H]1C[C@@H](O)[C@@H]2O` [Compound 3, 10β,16α,17β-Trihydroxy-19-nor-4-androsten-3-one] showed an IC50 of 77.4 µM.
For `C[C@]12CC[C@H]3[C@@H](C[C@@H](O)C4=CC(=O)CC[C@@]43O)[C@@H]1CC[C@@H]2O` [Compound 4, 6β,10β,17β-Trihydroxy-19-nor-4-androsten-3-one], the IC50 was 70.9 µM.
Work on `C[C@]12CC[C@H]3[C@@H](CCC4=CC(=O)CC[C@@]43O)[C@@H]1CC[C@@H]2O` [Compound 5, 10β,17β-Dihydroxy-19-nor-4-androsten-3-one] yielded an IC50 of 54.9 µM.
Compound `C[C@]12CC[C@H]3[C@@H](C[C@@H](O)C4=CC(=O)CC[C@@H]43)[C@@H]1CC[C@@H]2O` [Compound 6, 6β,17β-Dihydroxy-19-nor-4-androsten-3-one] has an IC50 of 80.2 µM.
`C[C@]12CC[C@H]3[C@@H](CCC4=CC(=O)CC[C@@]43O)[C@@H]1CCC2=O` [Compound 7, 10β-Hydroxy-19-nor-4-androsten-3,17-dione] gave an IC50 of 61.1 µM.
`C[C@]12CC[C@H]3[C@@H](CCC4=CC(=O)CC[C@@H]43)[C@@H]1C[C@H](O)[C@@H]2O` [Compound 8, 16β,17β-Dihydroxy-19-nor-4-androsten-3-one] was tested, and the IC50 was 29.6 µM.

Same assay, conditions: Leishmania major, 72 h, 72 h at 21-22° C., assays repeated thrice, read-out: Leishmanicidal Activity (IC50 in μM)
In the case of `C[C@@H]1[C@H](O)[C@@H](C)/C=C/C=C/C=C/C=C/C=C/C=C/C=C/[C@H](O[C@@H]2O[C@H](C)[C@@H](O)[C@H](N)[C@@H]2O)C[C@@H]2O[C@](O)(C[C@@H](O)C[C@@H](O)[C@H](O)CC[C@@H](O)C[C@@H](O)CC(=O)O[C@H]1C)C[C@H](O)[C@H]2C(=O)O` [Amphotericin B, reference compound], the IC50 is reported as 0.29 ± 0.05 µM.
`C[C@]12CC[C@H]3[C@@H](CCC4=CC(=O)CC[C@@H]43)[C@@H]1CC[C@@H]2O` [Compound 1, 17β-Hydroxy-19-nor-4-androsten-3-one, reference compound] was tested, and the IC50 was 29.6 to 80.2 µM.
`N=C(N)c1ccc(OCCCCCOc2ccc(C(=N)N)cc2)cc1` [Pentamidine, reference compound] was tested, and the IC50 was 5.09 ± 0.09 µM.

Same assay, conditions: Leishmania major, 72 h, 72 h at 21-22° C., read-out: IC50 against leishmaniasis (unit printed as M)
In the case of `N=C(N)c1ccc(OCCCCCOc2ccc(C(=N)N)cc2)cc1` [Pentamidine, reference compound], the IC50 is reported as 5.09 µM.

Same assay, conditions: read-out: Leishmanicidal Activity (IC50 in μM), 72 h at 21-22° C., assays repeated thrice, listed as Nandrolone (1)
With `C[C@]12CC[C@H]3[C@@H](CCC4=CC(=O)CC[C@@H]43)[C@@H]1CC[C@@H]2O` [Compound 1, 17β-Hydroxy-19-nor-4-androsten-3-one, reference compound] the IC50 was 32 µM.
